The target of assay [1] is T1, AldR (aldose reductase; also printed AdhR) (Rhodotorula toruloides, UniProt A0A2S9ZVX5). The assay can be described thus: spectrophotometric NADPH assay at […] nm; product galactitol by HPLC. Type of assay: biochemical. Conditions: NADPH as coenzyme; 10 mM galactose; 20 mM Tris-HCl pH 7.0; 25 °C.
Assay [2] concerns the target T1, AldR (aldose reductase; also printed AdhR). The assay can be described thus: spectrophotometric NADPH assay at […] nm. Type of assay: biochemical. As to conditions: 10 mM galactose as co-substrate; 20 mM Tris-HCl pH 7.0; 25 °C.

Structures are written as SMILES.

T1 sequence (A0A2S9ZVX5 entry or part of it): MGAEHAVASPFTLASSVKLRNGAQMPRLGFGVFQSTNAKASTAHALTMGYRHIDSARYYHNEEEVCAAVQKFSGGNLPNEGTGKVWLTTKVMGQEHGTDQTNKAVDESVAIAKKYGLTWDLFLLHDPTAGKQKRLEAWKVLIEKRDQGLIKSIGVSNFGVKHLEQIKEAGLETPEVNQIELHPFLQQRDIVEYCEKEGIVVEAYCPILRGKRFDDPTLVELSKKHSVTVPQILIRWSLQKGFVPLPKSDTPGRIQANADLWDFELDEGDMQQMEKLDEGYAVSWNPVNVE

In the case of `OC[C@H]1OC(O)[C@H](O)[C@@H](O)[C@H]1O` (some centres unmarked) [galactose], the “spectrophotometric NADPH assay at 340 nm; product galactitol by HPLC” value in assay [1] is “The recombinant enzyme exhibited activity against galactose with NADPH as the coenzyme”. In the case of `NC(=O)C1=CN([C@@H]2O[C@H](COP(=O)(O)OP(=O)(O)OC[C@H]3O[C@@H](n4cnc5c(N)ncnc54)[C@H](OP(=O)(O)O)[C@@H]3O)[C@@H](O)[C@H]2O)C=CC1` [NADPH], in assay [2], the “spectrophotometric NADPH assay at 340 nm” value is on record as “AldR is an NADPH-dependent enzyme, like other galactose reductases”.

The values are drawn from publication PMC6798376, “Production of galactitol from galactose by the oleaginous yeast Rhodosporidium toruloides IFO0880” (Biotechnology for Biofuels, 2019).
